According to patent US10285956B2, “N-(2-aminoethyl) ethanolamine (AEEA) and analogs to treat hypertrophic scarring and liposomal topical delivery” (BOARD OF REGENTS, THE UNIVERSITY OF TEXAS SYSTEM, priority 2016, dated 2019):

How the values were obtained:
fibronectin = assay: Fibronectin extractability, denaturing gel following digitonin, HS cells; assay type: cell-based, human
Protocol: Increased extractability of fibronectin induced by TGFβ1, with little effect of AEEA at 25 or 50 μM. However, the TGFβ1 enhancement of fibronectin is blocked by 50 μM AEEA (last two lanes). Fibronectin, a critical cell adhesion molecule, is implicated in HS. […] See text for densitometric analysis, FIGS. 3-7.

triple helical collagen = assay: Native (non-denaturing) gel of collagen tertiary structure (triple helix) in HS cells; assay type: cell-based, human; settings: for TGFβ1 effect: increase in triple helical collagen: TGFβ1 exposure last 4 days
Protocol: Native lysis buffer uses digitonin; see text. […] TGFβ1 treatment (4 days) increases mature (triple helical) structure, while changing monomer ratio, an effect that is mimicked by AEEA-alone at 25 μM but not at 50 μM (see text and FIG. 7 re: fibronectin). TGFβ1 effect appears attenuated by 50 μM AEEA.
PGK1/2 is fraction marker. […] These collagen aberrations were then examined with non-denaturing, or “native” gels (FIG. 5). “Native” or “non-denaturing” gel electrophoresis is run in non-denaturing conditions, i.e., in the absence of any charged denaturing agents, such as SDS; and reducing agent. Native gel allows for the protein's natural structure to be maintained. Thus, the physical size of the folded or assembled complex affects mobility. In SDS-PAGE, the electrophoretic mobility of proteins depends primarily on their molecular mass alone; in native gel the mobility also depends on both the protein's charge and its hydrodynamic size. The native lysis buffer used contains: 50 mM Tris-HCl, pH 7.5; 150 mM NaCl and 1% Digitonin.
However this finding is not present at 50 μM AEEA. Following 25 μM AEEA alone, a 6-fold increase was seen. The triple helical structure in the presence of both AEEA and TGFβ1 appeared relatively diminished.
Total collagen content of the matrix can be determined by established extraction procedures and a dye-binding method based on the specific binding of Sirius Red dye to the [Gly-X-Y]n helical structure of collagen types I to XIV. The method has virtually an exact correlation with analytic methods for hydroxyproline content. Elastin can be determined in separate samples as soluble tropoelastin utilizing a dye binding assay (Accurate Chemical Corp., Westbury, N.Y.) and as insoluble elastin by repeated salt and alkali extraction as previously described. The effects of AEEA on collagen and other extra-cellular protein abundances can be further evaluated by using the normal human neonatal primary dermal fibroblast (ATCC® PCS-201-010™), and normal skin fibroblasts (NS Fb), and also hypertrophic scar fibroblasts (HS Fb) derived from skin of the other clinically evident HS developed by patients. Time course and dose response studies can also be used to test the effects of AEEA on stability of those proteins, by Western blotting, to see if it is degraded more quickly in the AEEA treated cells. For Western Blot, cultured N Fb and FS Fb grown and treated with AEEA as described above can be gently washed with 4° C. pre-chilled PBS. The plate is then placed on the surface of a −20° C. ice block. […] The protein concentrations of the samples extracted with RIPA measured by with the DC™ protein assay kit (Bio-Rad Laboratories, Inc. USA), while the protein of remaining extracts is quantitated with the BCA protein assay (Pierce). […]

[1] = in utero exposure; cited from earlier work
collagen type 1 = assay: Collagen type 1 extractability, sequential denaturing ECM extraction (RIPA then urea), Western blot densitometry; assay type: cell-based, human; settings: for increased extractability of collagen type 1 (by densitometry): 14 day exposure, HS fibroblasts, urea lysis buffer
Protocol: Preparation of Decellularized Matrix Scaffold, or Extracellular Matrix (ECM): The methods for isolation and characterization of the matrix of skin cells (fibroblastic-type cells) derived from normal (N Fb) and those derived from hypertrophic scar (HS Fb), as well as an embryonic fibroblast (E Fb) as a further control for comparison by the present inventors; these basic methods can be followed in the characterization of mechanism(s) of HS. Briefly, fibroblast-like cells are cultured on 13 mm diameter Nunc™ Thermanox™ Coverslips (Catalog #174950) in 24-well cell culture plates in DMEM supplemented with 13% FCS, antibiotics, and 50 μg/ml of sodium ascorbate; cells are seeded at the number that cell density reaches 70% confluence in 24 hours. AEEA treatments start before the formation of ECM, at the second day post passage. Sodium ascorbate, which is the crucial cofactor of lysyl oxidase (LOX), lysyl hydroxylase, and proline hydroxylase (to be assayed), is added daily, 5 days/week, to stimulate ECM assembly. AEEA is changed with culture media (every 3 days). […] The next day, water is replaced with PBS, and the preparation is ready for AFM, or other biochemical, molecular or proteomic studies as described below. […]
Total collagen content of the matrix can be determined by established extraction procedures and a dye-binding method based on the specific binding of Sirius Red dye to the [Gly-X-Y]n helical structure of collagen types I to XIV. […] Elastin can be determined in separate samples as soluble tropoelastin utilizing a dye binding assay (Accurate Chemical Corp., Westbury, N.Y.) and as insoluble elastin by repeated salt and alkali extraction as previously described. The effects of AEEA on collagen and other extra-cellular protein abundances can be further evaluated by using the normal human neonatal primary dermal fibroblast (ATCC® PCS-201-010™), and normal skin fibroblasts (NS Fb), and also hypertrophic scar fibroblasts (HS Fb) derived from skin of the other clinically evident HS developed by patients. […]

[2] = Rat model of 30% scald burn, localized injections, adverse effect on skin or burn wound healing; assay type: in vivo
Protocol: To assess the possibility of an adverse AEEA effect on skin or burn wound healing, a rat model of 30% scald burn was utilized. AEEA was used to treat burns (or unburned skin as sham) by localized multiple injections (5 of 0.1 ml) of AEEA at 5.0 and 50.0 mM concentrations, which are 100- or 1,000-fold of the effective concentration in our cell culture, respectively, but is only 10% concentration of the rat DAA experiments by gavage.

α-SMA = α-SMA Western blot in normal (N) and HS skin fibroblasts; assay type: cell-based, human
Text: GAPDH is loading control. […] GAPDH is loading control. […] The effects of AEEA on collagen and other extra-cellular protein abundances can be further evaluated by using the normal human neonatal primary dermal fibroblast (ATCC® PCS-201-010™), and normal skin fibroblasts (NS Fb), and also hypertrophic scar fibroblasts (HS Fb) derived from skin of the other clinically evident HS developed by patients. Time course and dose response studies can also be used to test the effects of AEEA on stability of those proteins, by Western blotting, to see if it is degraded more quickly in the AEEA treated cells. For Western Blot, cultured N Fb and FS Fb grown and treated with AEEA as described above can be gently washed with 4° C. pre-chilled PBS. The plate is then placed on the surface of a −20° C. ice block. […] Therefore, samples are serially extracted with RIPA buffer, urea extraction buffer and then 0.5 M acetic acid; or, with native sample buffer, as described above. […] The protein concentrations of the samples extracted with RIPA measured by with the DC™ protein assay kit (Bio-Rad Laboratories, Inc. USA), while the protein of remaining extracts is quantitated with the BCA protein assay (Pierce). […] Signals are recorded on film (CL-XPousure™ film, Thermo Scientific) by using ECL™ Western blot detection reagents (Amersham Biosciences, RPN2209).

Integrins αV and β5 = Integrins αV and β5 extractability, denaturing gel, HS cells; assay type: cell-based, human
Text: (§1) In the native gel, intensities of integrin bands are not changed in a parallel fashion to that in denaturing gels, which may be the result of intramolecular alterations.
(§2) […] In FIG. 6, the effect of AEEA on fibronectin, integrins αV and β5, and N-cadherin is examined, which have all been implicated in the development of HS. In a denaturing gel, TGFβ1 and AEEA exposure has a similar effect of increasing extractability of integrins and, to some extent, N-cadherin. […] Most interesting are interactions between AEEA and TGFβ1 with regard to HS cell expression of fibronectin, a critical molecule in cell adhesion, growth, migration, and differentiation, which is implicated in HS.

skin fibroblasts = assay: Scanning EM of interstitial matrix (skin fibroblasts removed); assay type: cell-based, human; settings: AEEA 5, 10 mM, cells removed
Protocol: Briefly, fibroblast-like cells are cultured on 13 mm diameter Nunc™ Thermanox™ Coverslips (Catalog #174950) in 24-well cell culture plates in DMEM supplemented with 13% FCS, antibiotics, and 50 μg/ml of sodium ascorbate; cells are seeded at the number that cell density reaches 70% confluence in 24 hours. AEEA treatments start before the formation of ECM, at the second day post passage. Sodium ascorbate, which is the crucial cofactor of lysyl oxidase (LOX), lysyl hydroxylase, and proline hydroxylase (to be assayed), is added daily, 5 days/week, to stimulate ECM assembly. AEEA is changed with culture media (every 3 days). […] After 14 days of culture, the resulting tissue sheets are gently rinsed twice with PBS, and then incubated in sterile deionized water for 20 minutes at 4° C. to lyse the cells with hypotonic condition (decellularization). Matrix is rinsed free of cell debris, and ECM samples are kept overnight at 4° C.

N-Cadherin = assay: Extractable N-Cadherin, denaturing gel, HS cells; assay type: cell-based, human; settings: especially with both AEEA and TGFβ1
Text: as §1, §2

Row | Compound | TGFβ1 enhancement of fibronectin in presence of AEEA (fibronectin; 50 μM AEEA plus TGFβ1, HS cells) | effect on extractability of fibronectin (fibronectin; AEEA at 25 or 50 μM alone, HS cells) | increase in triple helical collagen (triple helical collagen; 25 μM AEEA alone, 7 days, native gel) [fold] | TGFβ1 effect on triple helical collagen in presence of AEEA (triple helical collagen; 50 μM AEEA plus TGFβ1, 7 days) | finding in rat pups born to mother rats exposed in utero [1] | increased extractability of collagen type 1 (by densitometry) (collagen type 1; 25 μM AEEA) [fold] | increased extractability of collagen type 1 (by densitometry) (collagen type 1; 100 μM AEEA) [fold] | increase of Collagen I extractability, densitometrically (collagen type 1; human burn wound fibroblasts (from HS) cultured in 50 μM compound) [fold] | localized skin or systemic effects ([2]; 5 injections of 0.1 ml at 5.0 and 50.0 mM, burns or unburned skin) | histology, AEEA sites vs vehicle (PBS buffer) sites ([2]; normal unburned skin or full thickness burns, 7 days post-burn) | α-SMA expression (α-SMA; 1-10 mM AEEA, 14 days, normal (N) and HS skin fibroblasts) | α-SMA expression (α-SMA; low (μM) AEEA doses, 14 day exposure, HS fibroblasts) | effect on Integrins αV and β5 (extractability) (Integrins αV and β5) | appearance of interstitial matrix by SEM (skin fibroblasts) | Extractable N-Cadherin (N-Cadherin) | increased extractability of fibronectin (fibronectin; TGFβ1 alone, denaturing gel, HS cells) [fold] | TGFβ1 effect: increase in triple helical collagen (triple helical collagen; 0.0 (control) AEEA, 7 days) [fold] | TGFβ1 effect: increase in triple helical collagen (triple helical collagen; with 25 μM AEEA, 7 days) [fold]
1 | NCCNCCO [AEEA, N-(2-aminoethyl) ethanolamine] | blocked | little effect | 6 | not present | dramatic dissecting aortic aneurysms | 2 | 5 | 3 | no untoward localized skin or systemic effects | no qualitative or quantitative differences | loss of α-SMA | not down-regulated | increasing | marked irregularities | increased | – | – | –
2 | TGFβ1: transforming growth factor-β1, regulator of scarring used to treat HS cells [reference compound] | – | – | – | – | – | – | – | – | – | – | – | – | increasing | – | increased | 5 | 10 | 16
